{
  "source": "PubChem BioAssay AID1259407",
  "about": "(Chemical Carcinogenesis Research Information System (CCRIS), 2018)",
  "system": "CCRIS mutagenicity, Ames/micronucleus/aberration tests",
  "experiment": "CCRIS mutagenicity studies",
  "text": "The CCRIS database contains chemical records with carcinogenicity, mutagenicity, tumor promotion, and tumor inhibition test results. It was developed by the National Cancer Institute (NCI). Data are derived from studies cited in primary journals, current awareness tools, NCI reports, and other sources. Test results have been reviewed by experts in carcinogenesis and mutagenesis.\nCCRIS provides historical information from the years 1985 - 2011. It is no longer updated.\nThis is an archive assay for CCRIS mutagenicity studies.",
  "key": {"[1]": {"conditions": "Test System: AMES SALMONELLA TYPHIMURIUM, Strain/Indicator: TA98, Metabolic Activation: NONE, Method: STANDARD PLATE"}, "[2]": {"conditions": "Test System: AMES SALMONELLA TYPHIMURIUM, Strain/Indicator: TA100, Metabolic Activation: NONE, Method: STANDARD PLATE"}, "[3]": {"conditions": "Test System: AMES SALMONELLA TYPHIMURIUM, Strain/Indicator: TA98, Metabolic Activation: RAT, LIVER, S-9, AROCLOR 1254, Method: STANDARD PLATE"}, "[4]": {"conditions": "Test System: AMES SALMONELLA TYPHIMURIUM, Strain/Indicator: TA100, Metabolic Activation: RAT, LIVER, S-9, AROCLOR 1254, Method: STANDARD PLATE"}, "[5]": {"conditions": "Test System: AMES SALMONELLA TYPHIMURIUM, Strain/Indicator: TA1537, Metabolic Activation: NONE, Method: STANDARD PLATE"}},
  "note": "Calls of active or inactive are those of the source. No rule for the calls is given here.",
  "data": [
    {"smiles": "COc1cc(N=Nc2ncc([N+](=O)[O-])s2)c(NC(C)=O)cc1N(CCOC(=O)OCC(C)C)CCOC(=O)OCC(C)C", "values": [
      {"measurement": "mutagenic call", "setting": "End Point: IN VITRO CHROMOSOMAL ABERRATIONS, Test System: CHL CELLS, Metabolic Activation: RAT, LIVER, S-9, SODIUM PHENOBARBITAL AND 5,6-BENZOFLAVONE", "result": "active; positive (ploidy changes)"}
    ]},
    {"smiles": "Cc1cccc2cc3c(cc12)-c1cccc2cccc-3c12", "values": [
      {"measurement": "mutagenic call", "setting": "Test System: AMES SALMONELLA TYPHIMURIUM, Strain/Indicator: TA100, Metabolic Activation: RAT, LIVER, S-9, AROCLOR 1254", "result": "active; positive"}
    ]},
    {"smiles": "COC1=CC(=O)c2c(ncc3c2[nH]c2ccccc23)C1=O", "values": [
      {"measurement": "mutagenic call", "setting": "Test System: AMES SALMONELLA TYPHIMURIUM, Strain/Indicator: TA97A, Metabolic Activation: NONE, Method: STANDARD PLATE", "result": "active; positive"},
      {"measurement": "mutagenic call", "setting": "Test System: AMES SALMONELLA TYPHIMURIUM, Strain/Indicator: TA97A, Metabolic Activation: RAT LIVER S-9, AROCLOR 1254, Method: STANDARD PLATE", "result": "active; positive"},
      {"measurement": "mutagenic call", "setting": "[1]", "result": "active; positive"},
      {"measurement": "mutagenic call", "setting": "Test System: AMES SALMONELLA TYPHIMURIUM, Strain/Indicator: TA98, Metabolic Activation: RAT LIVER S-9, AROCLOR 1254, Method: STANDARD PLATE", "result": "active; positive"},
      {"measurement": "mutagenic call", "setting": "[2]", "result": "active; positive"},
      {"measurement": "mutagenic call", "setting": "Test System: AMES SALMONELLA TYPHIMURIUM, Strain/Indicator: TA100, Metabolic Activation: RAT LIVER S-9, AROCLOR 1254, Method: STANDARD PLATE", "result": "active; positive"},
      {"measurement": "mutagenic call", "setting": "Test System: AMES SALMONELLA TYPHIMURIUM, Strain/Indicator: TA102, Metabolic Activation: NONE, Method: STANDARD PLATE", "result": "active; positive"},
      {"measurement": "mutagenic call", "setting": "Test System: AMES SALMONELLA TYPHIMURIUM, Strain/Indicator: TA102, Metabolic Activation: RAT LIVER S-9, AROCLOR 1254, Method: STANDARD PLATE", "result": "active; positive"}
    ]},
    {"smiles": "ClC(Cl)=Cc1c(Cl)c(Cl)c(Cl)c(Cl)c1Cl", "values": [
      {"measurement": "mutagenic call", "setting": "[1]", "result": "inactive; negative"},
      {"measurement": "mutagenic call", "setting": "[3]", "result": "inactive; negative"},
      {"measurement": "mutagenic call", "setting": "[2]", "result": "inactive; negative"},
      {"measurement": "mutagenic call", "setting": "[4]", "result": "inactive; negative"}
    ]},
    {"smiles": "O=C(O)/C=C/Cl", "values": [
      {"measurement": "mutagenic call", "setting": "Test System: AMES SALMONELLA TYPHIMURIUM, Strain/Indicator: TA97, Metabolic Activation: RAT, LIVER, S-9, PCB, Method: STANDARD PLATE", "result": "active; positive"},
      {"measurement": "mutagenic call", "setting": "Test System: AMES SALMONELLA TYPHIMURIUM, Strain/Indicator: TA102, Metabolic Activation: RAT, LIVER, S-9, PCB, Method: STANDARD PLATE", "result": "active; positive"}
    ]},
    {"smiles": "c1ccc2c(c1)COC2", "values": [
      {"measurement": "mutagenic call", "setting": "Test System: AMES SALMONELLA TYPHIMURIUM, Strain/Indicator: TA98, Metabolic Activation: NONE, Method: PREINCUBATION", "result": "active; positive"}
    ]},
    {"smiles": "O=c1c2ccccc2[nH]c2ccccc12", "values": [
      {"measurement": "mutagenic call", "setting": "Test System: AMES SALMONELLA TYPHIMURIUM, Strain/Indicator: TA100, Metabolic Activation: GUINEA PIG, LIVER, S-9, 3-METHYLCHOLANTHRENE, Method: STANDARD PLATE", "result": "inactive; negative"}
    ]},
    {"smiles": "CCCCS(=O)(=O)n1ncc(Cl)c(Cl)c1=O", "values": [
      {"measurement": "mutagenic call", "setting": "[1]", "result": "inactive; negative"},
      {"measurement": "mutagenic call", "setting": "[3]", "result": "inactive; negative"},
      {"measurement": "mutagenic call", "setting": "[2]", "result": "active; positive"},
      {"measurement": "mutagenic call", "setting": "[4]", "result": "active; positive"},
      {"measurement": "mutagenic call", "setting": "Test System: AMES SALMONELLA TYPHIMURIUM, Strain/Indicator: TA1535, Metabolic Activation: NONE, Method: STANDARD PLATE", "result": "inactive; negative"},
      {"measurement": "mutagenic call", "setting": "Test System: AMES SALMONELLA TYPHIMURIUM, Strain/Indicator: TA1535, Metabolic Activation: RAT, LIVER, S-9, AROCLOR 1254, Method: STANDARD PLATE", "result": "active; positive"},
      {"measurement": "mutagenic call", "setting": "[5]", "result": "inactive; negative"},
      {"measurement": "mutagenic call", "setting": "Test System: AMES SALMONELLA TYPHIMURIUM, Strain/Indicator: TA1537, Metabolic Activation: RAT, LIVER, S-9, AROCLOR 1254, Method: STANDARD PLATE", "result": "inactive; negative"}
    ]},
    {"smiles": "COC(=O)C1(C(N)=O)OC1(C)C(O)C(C)C", "note": "(configuration not stated)", "values": [
      {"measurement": "mutagenic call", "setting": "Test System: AMES SALMONELLA TYPHIMURIUM, Strain/Indicator: TA98, Metabolic Activation: NONE, Method: DISK ASSAY", "result": "inactive; negative"},
      {"measurement": "mutagenic call", "setting": "[1]", "result": "inactive; negative"},
      {"measurement": "mutagenic call", "setting": "Test System: AMES SALMONELLA TYPHIMURIUM, Strain/Indicator: TA98, Metabolic Activation: RAT, LIVER, S-9, AROCLOR 1254, Method: DISK ASSAY", "result": "inactive; negative"},
      {"measurement": "mutagenic call", "setting": "[3]", "result": "active; positive"},
      {"measurement": "mutagenic call", "setting": "[2]", "result": "inactive; negative"},
      {"measurement": "mutagenic call", "setting": "[4]", "result": "inactive; negative"}
    ]},
    {"smiles": "Cc1ccc2c(ccc3c4ccccc4ccc23)c1", "values": [
      {"measurement": "mutagenic call", "setting": "Test System: AMES SALMONELLA TYPHIMURIUM, Strain/Indicator: TA98, Metabolic Activation: RAT, LIVER, CYTOSOL, AROCLOR 1254, Method: STANDARD PLATE", "result": "inactive; negative"},
      {"measurement": "mutagenic call", "setting": "Test System: AMES SALMONELLA TYPHIMURIUM, Strain/Indicator: TA98, Metabolic Activation: RAT, LIVER, MICROSOMES, AROCLOR 1254, Method: STANDARD PLATE", "result": "inactive; negative"},
      {"measurement": "mutagenic call", "setting": "Test System: AMES SALMONELLA TYPHIMURIUM, Strain/Indicator: TA100, Metabolic Activation: RAT, LIVER, MICROSOMES, 2-METHYLCHRYSENE, Method: STANDARD PLATE", "result": "inactive; negative"},
      {"measurement": "mutagenic call", "setting": "Test System: AMES SALMONELLA TYPHIMURIUM, Strain/Indicator: TA100, Metabolic Activation: RAT, LIVER, MICROSOMES, AROCLOR 1254, Method: STANDARD PLATE", "result": "active; positive"},
      {"measurement": "mutagenic call", "setting": "Test System: AMES SALMONELLA TYPHIMURIUM, Strain/Indicator: TA100, Metabolic Activation: RAT, LIVER, MICROSOMES, Method: STANDARD PLATE", "result": "inactive; negative"}
    ]},
    {"smiles": "CC(=O)C1c2cccc(O)c2C(=O)c2c(O)cccc21", "values": [
      {"measurement": "mutagenic call", "setting": "[5]", "result": "active; positive"},
      {"measurement": "mutagenic call", "setting": "Test System: AMES SALMONELLA TYPHIMURIUM, Strain/Indicator: TA1537, Metabolic Activation: RAT, LIVER, S-9, PHENOBARBITAL AND BETA-NAPHTHOFLAVONE, Method: STANDARD PLATE", "result": "inactive; negative"},
      {"measurement": "mutagenic call", "setting": "Test System: E. COLI, Strain/Indicator: WP2, Metabolic Activation: NONE, Method: STANDARD PLATE", "result": "inactive; negative"},
      {"measurement": "mutagenic call", "setting": "Test System: E. COLI, Strain/Indicator: WP2, Metabolic Activation: RAT, LIVER, S-9, AROCLOR 1254, Method: STANDARD PLATE", "result": "inactive; negative"},
      {"measurement": "mutagenic call", "setting": "Test System: E. COLI, Strain/Indicator: WP2 UVRA, Metabolic Activation: NONE, Method: STANDARD PLATE", "result": "inactive; negative"},
      {"measurement": "mutagenic call", "setting": "Test System: E. COLI, Strain/Indicator: WP2 UVRA, Metabolic Activation: RAT, LIVER, S-9, AROCLOR 1254, Method: STANDARD PLATE", "result": "inactive; negative"}
    ]},
    {"smiles": "O=[N+]([O-])c1cccc(S(=O)(=O)OC[C@H]2CO2)c1", "values": [
      {"measurement": "mutagenic call", "setting": "[2]", "result": "active; positive"}
    ]},
    {"smiles": "NC(=O)N(CCCl)N=O", "values": [
      {"measurement": "mutagenic call", "setting": "Test System: CHINESE HAMSTER V-79, Strain/Indicator: V-79/6-THIOGUANINE, Metabolic Activation: NONE, Method: STANDARD PLATE", "result": "active; positive"},
      {"measurement": "mutagenic call", "setting": "Test System: E. COLI B, Strain/Indicator: H/R30R, Metabolic Activation: NONE", "result": "active; positive"},
      {"measurement": "mutagenic call", "setting": "Test System: E. COLI B, Strain/Indicator: HS30R, Metabolic Activation: NONE", "result": "active; positive"}
    ]}
  ]
}
